We go through four compounds from patent US20260092071A1, “COMPOUNDS AND COMPOSITIONS AS SMARCA2/4 DEGRADERS AND USES THEREOF” (REGENTS OF THE UNIVERSITY OF MICHIGAN, priority 2022, published 2026).

By DC50 is commonly meant the concentration giving 50% degradation. Broadly, the Dmax is the largest share of the target that was removed.

Read-outs that look alike come from different tables or passages of the source.

Experiment [1] has as its target SMARCA4 (Homo sapiens, UniProt P51532). The experiment is described as follows: HiBiT assay for protein degradation, Hela SMARCA4-HiBiT cells (A series). The format is cell-based. The arrangement: fuse HiBiT to the carboxy terminus of SMARCA2 (Promega CS302365) or SMARCA4 (Promega CS3023225); host or cells: HeLa (CRISPR/Cas9 HiBiT knock-in). Conditions: Hela SMARCA4-HiBiT cells, 24 hours treatment; for DC50: read-out: SMARC A4 Hela HiBit DC50. A digest of the protocol: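 HeLa cells engineered by CRISPR/Cas9 to carry a HiBiT tag fused to the C-terminus of SMARCA4 (Promega CS3023225) were grown in DMEM supplemented with FBS and penicillin-streptomycin. After compound exposure, remaining SMARCA4 protein was quantified using the Nano-Glo® HiBiT Lytic Detection Assay (Promega N3050), and curves were fitted in GraphPad Prism.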

For experiment [2], the target named is SMARCA2 (Homo sapiens, UniProt P51531). The experiment is described as follows: HiBiT assay for protein degradation, Hela SMARCA2-HiBiT cells (A series).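 On SMARC A2 Hela HiBit Dmax (%): 24 h compound treatment.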 The class given is cell-based. The arrangement: Hela cells were genetically modified via CRISPR/Cas9 to fuse HiBiT to the carboxy terminus of SMARCA2; host or cells: HeLa (CRISPR/Cas9 HiBiT knock-in). The note with it: Hela SMARCA2-HiBiT cells, 24 hours treatment; for DC50: read-out: SMARC A2 Hela HiBit DC50; for Dmax: read-out: SMARC A2 Hela HiBit Dmax (%). Summed up:
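HeLa cells engineered by CRISPR/Cas9 to carry a HiBiT tag fused to the C-terminus of SMARCA2 (Promega CS302365) were grown in DMEM supplemented with FBS and penicillin-streptomycin. After treatment, remaining SMARCA2 protein was quantified with the Nano-Glo® HiBiT Lytic Detection Assay (Promega N3050), and curves were fitted in GraphPad Prism.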
On the technique in general: HiBiT is a short tag that completes a luciferase, so light tracks the accessible tagged protein.

The mark [3] stands for this setting: read-out: SMARC A4 Hela HiBit Dmax.

Chain of SMARCA4 (P51532 whole entry, the tested form may be a part): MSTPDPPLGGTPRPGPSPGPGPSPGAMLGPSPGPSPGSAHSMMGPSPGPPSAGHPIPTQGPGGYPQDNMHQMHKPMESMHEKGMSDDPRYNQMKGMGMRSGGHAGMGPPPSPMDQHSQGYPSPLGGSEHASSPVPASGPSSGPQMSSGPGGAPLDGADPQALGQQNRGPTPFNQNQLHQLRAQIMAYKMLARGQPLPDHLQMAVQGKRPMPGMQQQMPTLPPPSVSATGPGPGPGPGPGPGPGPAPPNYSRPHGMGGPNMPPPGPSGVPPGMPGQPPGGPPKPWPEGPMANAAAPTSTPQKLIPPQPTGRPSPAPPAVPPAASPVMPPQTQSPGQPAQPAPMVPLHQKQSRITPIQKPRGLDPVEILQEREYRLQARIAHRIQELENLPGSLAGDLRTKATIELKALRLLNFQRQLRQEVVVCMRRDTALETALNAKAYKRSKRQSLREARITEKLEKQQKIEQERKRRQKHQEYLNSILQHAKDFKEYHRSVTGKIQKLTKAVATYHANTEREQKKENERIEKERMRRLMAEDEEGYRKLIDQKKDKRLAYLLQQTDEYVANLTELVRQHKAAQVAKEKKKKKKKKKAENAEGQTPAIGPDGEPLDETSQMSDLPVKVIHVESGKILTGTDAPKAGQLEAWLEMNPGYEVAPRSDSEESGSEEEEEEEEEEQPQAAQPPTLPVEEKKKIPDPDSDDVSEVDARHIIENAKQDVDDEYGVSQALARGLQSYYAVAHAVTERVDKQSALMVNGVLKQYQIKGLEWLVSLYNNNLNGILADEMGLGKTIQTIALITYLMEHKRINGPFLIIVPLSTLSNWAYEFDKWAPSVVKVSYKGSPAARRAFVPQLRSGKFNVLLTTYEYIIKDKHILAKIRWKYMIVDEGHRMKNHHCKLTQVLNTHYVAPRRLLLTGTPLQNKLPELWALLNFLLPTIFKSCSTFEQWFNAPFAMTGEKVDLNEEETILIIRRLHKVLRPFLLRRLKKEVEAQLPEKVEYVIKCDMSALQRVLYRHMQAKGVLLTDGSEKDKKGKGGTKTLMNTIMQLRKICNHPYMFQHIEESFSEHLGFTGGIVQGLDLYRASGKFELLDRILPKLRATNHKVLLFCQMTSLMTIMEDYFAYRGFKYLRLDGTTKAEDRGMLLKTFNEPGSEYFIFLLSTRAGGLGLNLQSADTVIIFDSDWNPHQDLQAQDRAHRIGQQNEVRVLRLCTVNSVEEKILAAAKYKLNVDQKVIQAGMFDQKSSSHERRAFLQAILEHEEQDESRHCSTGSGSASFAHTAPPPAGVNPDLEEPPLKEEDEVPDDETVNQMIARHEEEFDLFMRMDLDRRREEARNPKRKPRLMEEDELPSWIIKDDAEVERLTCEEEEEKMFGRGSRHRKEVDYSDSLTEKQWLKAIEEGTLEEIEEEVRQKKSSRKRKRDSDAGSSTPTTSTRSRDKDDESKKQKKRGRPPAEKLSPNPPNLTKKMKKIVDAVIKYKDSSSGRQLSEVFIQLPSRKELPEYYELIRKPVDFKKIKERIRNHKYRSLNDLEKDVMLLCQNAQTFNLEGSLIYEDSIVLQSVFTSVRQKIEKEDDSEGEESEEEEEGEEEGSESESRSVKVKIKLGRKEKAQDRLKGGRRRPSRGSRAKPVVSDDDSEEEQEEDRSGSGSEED
Chain of SMARCA2 (P51531 whole entry, the tested form may be a part): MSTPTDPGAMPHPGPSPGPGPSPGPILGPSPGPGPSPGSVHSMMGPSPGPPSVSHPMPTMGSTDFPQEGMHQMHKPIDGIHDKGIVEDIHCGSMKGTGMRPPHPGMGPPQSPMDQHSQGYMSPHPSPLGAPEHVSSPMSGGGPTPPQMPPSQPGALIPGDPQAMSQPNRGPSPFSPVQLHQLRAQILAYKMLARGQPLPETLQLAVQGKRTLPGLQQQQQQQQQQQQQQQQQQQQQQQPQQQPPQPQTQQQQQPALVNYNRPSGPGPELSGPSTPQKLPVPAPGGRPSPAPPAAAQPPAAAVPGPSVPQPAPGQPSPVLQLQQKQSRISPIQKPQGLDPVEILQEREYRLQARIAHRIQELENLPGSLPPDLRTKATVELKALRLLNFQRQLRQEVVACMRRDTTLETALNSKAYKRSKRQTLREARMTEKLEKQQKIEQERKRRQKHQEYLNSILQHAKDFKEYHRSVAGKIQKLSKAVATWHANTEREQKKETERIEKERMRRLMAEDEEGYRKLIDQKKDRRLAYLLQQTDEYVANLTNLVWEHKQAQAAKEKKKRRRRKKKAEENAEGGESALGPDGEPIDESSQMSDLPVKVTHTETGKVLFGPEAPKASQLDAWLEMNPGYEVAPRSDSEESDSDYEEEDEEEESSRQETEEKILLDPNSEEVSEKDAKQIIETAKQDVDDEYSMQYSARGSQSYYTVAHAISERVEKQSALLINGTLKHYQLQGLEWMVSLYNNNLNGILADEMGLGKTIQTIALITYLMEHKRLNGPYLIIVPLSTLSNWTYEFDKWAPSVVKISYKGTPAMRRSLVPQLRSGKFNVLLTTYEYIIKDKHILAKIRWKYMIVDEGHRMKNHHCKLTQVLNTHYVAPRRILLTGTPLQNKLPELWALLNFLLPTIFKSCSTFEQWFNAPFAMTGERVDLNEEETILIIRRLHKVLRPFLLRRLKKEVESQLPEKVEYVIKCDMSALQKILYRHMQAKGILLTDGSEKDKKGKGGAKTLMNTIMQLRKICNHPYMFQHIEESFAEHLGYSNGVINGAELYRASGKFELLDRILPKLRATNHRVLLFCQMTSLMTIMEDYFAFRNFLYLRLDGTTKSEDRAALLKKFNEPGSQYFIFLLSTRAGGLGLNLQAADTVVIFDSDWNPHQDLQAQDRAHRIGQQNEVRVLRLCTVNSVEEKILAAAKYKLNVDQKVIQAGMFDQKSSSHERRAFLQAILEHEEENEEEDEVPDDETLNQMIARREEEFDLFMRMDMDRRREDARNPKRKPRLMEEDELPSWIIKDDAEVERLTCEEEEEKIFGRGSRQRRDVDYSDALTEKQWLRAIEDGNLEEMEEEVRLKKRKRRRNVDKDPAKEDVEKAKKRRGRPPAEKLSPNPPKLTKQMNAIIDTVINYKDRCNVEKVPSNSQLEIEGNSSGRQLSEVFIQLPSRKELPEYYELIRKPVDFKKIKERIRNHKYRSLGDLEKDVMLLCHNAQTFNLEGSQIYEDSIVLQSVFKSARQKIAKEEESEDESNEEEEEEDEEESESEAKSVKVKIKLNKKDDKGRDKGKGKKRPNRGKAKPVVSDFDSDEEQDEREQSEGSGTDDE

On to `Cc1ncsc1-c1ccc([C@H](CCCCCN2CCC(c3ccc4c(n3)-n3c(nc(=O)c5c(Br)cccc53)C43CCCCC3)CC2)NC(=O)[C@H]2C[C@H](O)CN2C(=O)[C@@H](n2cc(C3CC3)nn2)C(C)(C)C)cc1` [Compound A37, (2R,4S)—N—((S)-6-(4-(4′-bromo-5′-oxo-5′H-spiro[cyclohexane-1,7′-pyrido[3′,2′: 4,5]pyrrolo[1,2-a]quinazolin]-10′-yl)piperidin-1-yl)-1-(4-(4-methylthiazol-5-yl)phenyl)hexyl)-1-((S)-2-(4-cyclopropyl-1H-1,2,3-triazol-1-yl)-3,3-dimethylbutanoyl)-4-hydroxypyrrolidine-2-carboxamide], for which the DC50 in experiment [1] and in experiment [2] was less than 100 nM each time. The Dmax in experiment [1] (read-out: SMARC A4 Hela HiBit Dmax(%)) and in experiment [2] was more than 90% throughout.
As to `Cc1ncsc1-c1ccc([C@H](CC(=O)N2CCC3(CCC(CN4CCC(c5ccc6c(c5)-n5c(nc(=O)c7c(Br)cccc75)C65CCCCC5)CC4)CC3)CC2)NC(=O)[C@@H]2C[C@@H](O)CN2C(=O)[C@@H](n2cc(C3CC3)nn2)C(C)(C)C)cc1` [Compound A142, (2S,4R)—N—((S)-3-(9-((4-(4′-bromo-5′-oxo-5′H-spiro[cyclohexane-1,7′-indolo[1,2-a]quinazolin]-10′-yl)piperidin-1-yl)methyl)-3-azaspiro[5.5]undecan-3-yl)-1-(4-(4-methylthiazol-5-yl)phenyl)-3-oxopropyl)-1-((S)-2-(4-cyclopropyl-1H-1,2,3-triazol-1-yl)-3,3-dimethylbutanoyl)-4-hydroxypyrrolidine-2-carboxamide], the DC50 in experiment [1] and in experiment [2] was less than 10 nM in each case. In addition, the Dmax was 70 to 90% in experiment [1] (setting [3]) and more than 90% in experiment [2].
As to `Cc1ncsc1-c1ccc([C@H](C)NC(=O)[C@@H]2C[C@@H](O)CN2C(=O)[C@H](C2CCOCC2)n2cc([C@H]3CC[C@H](CN4CCC(c5ccc6c(c5)-n5c(nc(=O)c7c(Br)cccc75)C65CCCCC5)CC4)CC3)nn2)cc1` [Compound A121, (2S,4R)-1-((S)-2-(4-((1r,4S)-4-((4-(4′-bromo-5′-oxo-5′H-spiro[cyclohexane-1,7′-indolo[1,2-a]quinazolin]-10′-yl)piperidin-1-yl)methyl)cyclohexyl)-1H-1,2,3-triazol-1-yl)-2-(tetrahydro-2H-pyran-4-yl)acetyl)-4-hydroxy-N—((S)-1-(4-(4-methylthiazol-5-yl)phenyl)ethyl)pyrrolidine-2-carboxamide], in experiment [1], the “SMARC A4 Hela HiBit DC50(nM)” value is “No fit”. The greatest degradation seen (Dmax) in experiment [1] (setting [3]) is 70 to 90%. Further, in experiment [2], the half-maximal degradation concentration (DC50) is less than 10 nM and the Dmax was more than 90%.
With `Cc1ncsc1-c1ccc([C@H](C)NC(=O)[C@@H]2C[C@@H](O)CN2C(=O)[C@H](C2CCN(C(=O)[C@H]3CC[C@H](CN4CCC(c5ccc6c(c5)-n5c(nc(=O)c7c(Cl)cccc75)C65CCCCC5)CC4)CC3)CC2)n2cc(C3CC3)nn2)cc1` [Compound A108, (2S,4R)-1-((S)-2-(1-((1r,4S)-4-((4-(4′-chloro-5′-oxo-5′H-spiro[cyclohexane-1,7′-indolo[1,2-a]quinazolin]-10′-yl)piperidin-1-yl)methyl)cyclohexane-1-carbonyl)piperidin-4-yl)-2-(4-cyclopropyl-1H-1,2,3-triazol-1-yl)acetyl)-4-hydroxy-N—((S)-1-(4-(4-methylthiazol-5-yl)phenyl)ethyl)pyrrolidine-2-carboxamide], the DC50 was more than 1000 nM in experiment [1] and less than 10 nM in experiment [2]. Moreover, the maximal degradation (Dmax) was less than 50% in experiment [1] (setting [3]) and 70 to 90% in experiment [2].
